Read-outs that look alike come from different tables or passages of the source.
Legend:
[1] = biological target: T1, Mycobacterium tuberculosis IspD (MtIspD) (Mycobacterium tuberculosis, UniProt P9WKG9); assay: Thermal shift assay against MtIspD; assay type: binding
T1 sequence (P9WKG9 1-231): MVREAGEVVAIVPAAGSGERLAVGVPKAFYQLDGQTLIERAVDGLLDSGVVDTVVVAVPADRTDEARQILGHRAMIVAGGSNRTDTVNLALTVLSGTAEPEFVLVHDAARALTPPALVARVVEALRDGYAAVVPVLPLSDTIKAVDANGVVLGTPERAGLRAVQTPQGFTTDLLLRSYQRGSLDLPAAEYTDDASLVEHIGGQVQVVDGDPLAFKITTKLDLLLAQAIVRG

[2] = biological target: Lycopersicon esculentum IspE (LeIspE) (Solanum lycopersicum, UniProt P93841); assay: Thermal shift assay against LeIspE; assay type: binding
lettuce seeds = assay: Lettuce leaf assay; assay type: in vivo; parameters: key: 0 (no effect); 5(complete inhibition or bleaching); details: ranking 0-5
Description: The lettuce leaf assay is a qualitative assay used to determine the relative effectiveness of the test compounds at inhibition of germination of seeds and root development as well as causing bleaching of leaves. Isoprenoid synthesis is vital in plants as isoprene-product gibberellins are a class of growth hormones in plants responsible for stimulating cell elongation and division. In addition, some carotenoids are involved in photosynthesis as components of the electron transport chain. MEP pathway inhibitors have the potential to prevent synthesis of these necessary cellular components and growth hormones resulting in inhibition of germination and root development as well as causing chlorosis, or bleaching in the leaves. The lettuce leaf assay, explores the effects of compounds as potential MEP pathway inhibitors by evaluating the effect on bleaching, root development, and germination of lettuce seeds, which all rely on isoprenoid biosynthesis. […] The assay is a qualitative assay and the effects are given rankings from 0 (no effect) to 5 (complete inhibition or bleaching). In this assay, compounds are dissolved in a volatile organic solvent and applied to filter paper in a petri dish. The solvent is allowed to evaporate and lettuce seeds are applied followed by the addition of 5 mL of water to obtain the necessary concentrations. Seeds are allowed to grow and they are observed on day 3 and day 4 for evaluation.

AtIspD = AtIspD (Arabidopsis thaliana, UniProt P69834); assay: University of Hamburg photometric enzymatic inhibition assay AtIspD; assay type: biochemical; details: read-out: AtIspD IC50
Method: (§1) Compounds were subjected to a photometric enzymatic assay to test for inhibition of the plant enzymes Arabidopsis thaliana IspD and IspF, and IspE from Lycopersicon esculentum.
The procedure for AtIspD enzymatic inhibition assay, was performed by making an assay mixture of 100 mM Tris hydrochloride at pH 8.0 with 10 mM MgCl2, 1 mM dithiothreitol, 2.5 mM potassium phosphoenol pyruvate, 2.1 mM CTP, 2 mM ATP, 1 mM of (2R,3S)-2,3-dihydroxy-4-oxopentyl phosphate, 460 μM NADH, 1.1% (v/v) DMSO, 0.4 U IspE, 1 U lactate dehydrogenase, 1 U pyruvate kinase and 2.4 mU IspD in 180 μL of solution. Solutions were incubated at 27° C. and monitored photometrically. By preparing the assay mixture with a large excess of IspE compared to IspD, any inhibition of IspE by the test inhibitor would be insignificant compared to IspD and therefore the rate of the reaction is determined by IspD activity.

LeIspE = LeIspE (Solanum lycopersicum, UniProt P93841); assay: University of Hamburg photometric enzymatic inhibition assay LeIspE; assay type: biochemical, Lycopersicon esculentum; details: read-out: LeIspE IC50
Method: as §1
The IspE assay conditions were very similar to the IspD assay in which the assay mixture was composed of 100 mM Tris hydrochloride at pH 8.0 with 10 mM MgCl2, 1 mM dithiothreitol, 2.5 mM potassium phosphoenol pyruvate, 2 mM ATP, 1 mM of 4-Diphosphocytidyl-2-C-methylerythritol, 460 μM NADH, 1.1% (v/v) DMSO, 2.4 mU IspE, 1 U lactate dehydrogenase, 1 U pyruvate kinase in 180 μL of solution. Solutions were incubated at 27° C. and monitored photometrically.

AtIspF = AtIspF (Arabidopsis thaliana, UniProt Q9CAK8); assay: University of Hamburg photometric enzymatic inhibition assay AtIspF; assay type: biochemical; details: read-out: AtIspF IC50
Method: as §1
The IspF assay mixture conditions were as follows: 100 mM Tris hydrochloride at pH 8.0 with 10 mM MgCl2, 1 mM dithiothreitol, 2.5 mM potassium phosphoenol pyruvate, 2 mM ATP, 1 mM of 4-diphosphocytidyl-2C methylerythritol 2-phosphate, 460 μM NADH, 1.1% (v/v) DMSO, 0.5 U CMP kinase, 2.4 mU IspF, 1 U lactate dehydrogenase, 1 U pyruvate kinase in 180 μL of solution. Solutions were incubated at 27° C. and monitored photometrically.

[3] = tested on: Burkholderia thailandensis; assay type: cell-based; details: preliminary screening, score 0-3
Mycobacterium smegmatis [4] = assay: Antibacterial preliminary screening MS; assay type: cell-based; details: score 0-3; further: key: 0 represents no inhibition; 3 is comparable to commercial antibiotic control
Corynebacterium xerosis [5] = assay: Antibacterial preliminary screening CX; assay type: cell-based; details: score 0-3; further: key: 0 represents no inhibition; 3 is comparable to commercial antibiotic control
[6] = tested on: Corynebacterium pseudodiphtheriae; assay: Antibacterial preliminary screening CP; assay type: cell-based; details: score 0-3;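 further: 0 is no inhibition and 3 matches the commercial antibiotic control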
Escherichia coli [7] = assay: Antibacterial preliminary screening EC; assay type: cell-based; details: score 0-3; further: key: 0 represents no inhibition; 3 is comparable to commercial antibiotic control
Klebsiella pneumonia [8] = assay: Antibacterial preliminary screening KP; assay type: cell-based; details: score 0-3; further: key: 0 represents no inhibition; 3 is comparable to commercial antibiotic control
Micrococcus luteus [9] = assay: Antibacterial preliminary screening ML; assay type: cell-based; details: score 0-3
Bacillus cereus [10] = assay: Antibacterial preliminary screening BC; assay type: cell-based; details: score 0-3
Pseudomonas aeruginosa [11] = assay: Antibacterial preliminary screening PA; assay type: cell-based; details: score 0-3
[12] = tested on: Burkholderia thailandensis; assay type: cell-based
Pseudomonas aeruginosa [13] = assay: Antibacterial assay zone of inhibition Pa; assay type: cell-based
Micrococcus luteus [14] = assay: Antibacterial assay zone of inhibition Ml; assay type: cell-based
Klebsiella pneumonia [15] = assay: Antibacterial assay zone of inhibition Kp; assay type: cell-based
Escherichia coli [16] = assay: Antibacterial assay zone of inhibition Ec; assay type: cell-based
Bacillus cereus [17] = assay: Antibacterial assay zone of inhibition Bc; assay type: cell-based
Mycobacterium smegmatis [18] = assay: Antibacterial assay zone of inhibition Ms; assay type: cell-based
Corynebacterium xerosis [19] = assay: Antibacterial assay zone of inhibition Cx; assay type: cell-based
[20] = tested on: Corynebacterium pseudodiphtheriae; assay: Antibacterial assay zone of inhibition Cp; assay type: cell-based

Chain of AtIspF (Q9CAK8 53-231): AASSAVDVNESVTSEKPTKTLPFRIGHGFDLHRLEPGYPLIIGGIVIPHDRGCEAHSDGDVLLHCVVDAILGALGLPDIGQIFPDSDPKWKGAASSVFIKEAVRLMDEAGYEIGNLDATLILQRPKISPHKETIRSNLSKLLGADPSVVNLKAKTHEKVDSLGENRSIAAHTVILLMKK
Chain of AtIspD (P69834 62-302): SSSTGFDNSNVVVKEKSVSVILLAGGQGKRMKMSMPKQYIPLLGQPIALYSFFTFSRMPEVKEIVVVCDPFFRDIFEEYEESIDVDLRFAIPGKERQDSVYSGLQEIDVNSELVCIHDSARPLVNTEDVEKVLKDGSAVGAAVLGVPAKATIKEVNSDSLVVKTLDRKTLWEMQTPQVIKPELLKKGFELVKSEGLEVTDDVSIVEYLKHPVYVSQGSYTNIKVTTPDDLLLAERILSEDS
Chain of Lycopersicon esculentum IspE (LeIspE) (P93841 89-401): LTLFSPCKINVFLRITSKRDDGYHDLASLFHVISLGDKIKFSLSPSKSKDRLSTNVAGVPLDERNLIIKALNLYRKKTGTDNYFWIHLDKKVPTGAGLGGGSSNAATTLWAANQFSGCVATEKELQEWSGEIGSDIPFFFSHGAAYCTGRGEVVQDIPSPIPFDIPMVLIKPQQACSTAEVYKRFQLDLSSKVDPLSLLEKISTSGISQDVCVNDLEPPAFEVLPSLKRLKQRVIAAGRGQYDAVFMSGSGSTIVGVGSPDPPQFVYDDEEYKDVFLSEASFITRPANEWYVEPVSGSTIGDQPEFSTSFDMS
Chain of LeIspE (P93841 89-401): as above

Structure (SMILES): c1ccc(-c2cccc(-c3nnc(-c4cc5ccccc5[nH]4)o3)c2)cc1 [HGN-287, 2-([1,1′-biphenyl]-3-yl)-5-(1H-indol-2-yl)-1,3,4-oxadiazole]
- MtIspD melting point change [1]: 0.5 °C
- MtIspD melting temp [1]: 48.5 °C
- LeIspE melting point change [2]: −0.25 °C
- LeIspE melting temp [2]: 49.25 °C
- Bleaching (lettuce seeds; 0.15 mM): 0
- Germination (lettuce seeds; 0.15 mM): 0
- Root Dev. (lettuce seeds; 0.15 mM): 0
- Bleaching (lettuce seeds; 0.3 mM): 0
- Germination (lettuce seeds; 0.3 mM): 0
- Root Dev. (lettuce seeds; 0.3 mM): 0
- IC50 (AtIspD): 501 ± 82 µM
- IC50 (LeIspE): > 1000 µM
- IC50 (AtIspF): > 1 mM
- BT score [3]: 0
- MS score (Mycobacterium smegmatis [4]): 0
- CX score (Corynebacterium xerosis [5]): 0
- CP score [6]: 0
- EC score (Escherichia coli [7]): 0
- KP score (Klebsiella pneumonia [8]): 0
- ML score (Micrococcus luteus [9]): 0
- BC score (Bacillus cereus [10]): 0
- PA score (Pseudomonas aeruginosa [11]): 0

Structure (SMILES): COc1ccc(OCc2nnc(-c3nc4ccccc4s3)o2)cc1 [HGN-833]
- Antibacterial Bt zone of inhibition ([12]; 0.1 mM): 0 12 17 millimeters
- Antibacterial Bt zone of inhibition ([12]; 0.5 mM): 0 12 17 millimeters
- Antibacterial Bt zone of inhibition ([12]; 1 mM): 0 12 17 millimeters
- Antibacterial Pa zone of inhibition (Pseudomonas aeruginosa [13]; 0.1 mM): 0 millimeters
- Antibacterial Pa zone of inhibition (Pseudomonas aeruginosa [13]; 0.5 mM): 0 millimeters
- Antibacterial Pa zone of inhibition (Pseudomonas aeruginosa [13]; 1 mM): 0 millimeters
- Antibacterial Ml zone of inhibition (Micrococcus luteus [14]; 0.1 mM): 0 millimeters
- Antibacterial Ml zone of inhibition (Micrococcus luteus [14]; 0.5 mM): 0 millimeters
- Antibacterial Ml zone of inhibition (Micrococcus luteus [14]; 1 mM): 13 millimeters
- Antibacterial Kp zone of inhibition (Klebsiella pneumonia [15]; 0.1 mM): 0 millimeters
- Antibacterial Kp zone of inhibition (Klebsiella pneumonia [15]; 0.5 mM): 0 millimeters
- Antibacterial Kp zone of inhibition (Klebsiella pneumonia [15]; 1 mM): 0 millimeters
- Antibacterial Ec zone of inhibition (Escherichia coli [16]; 0.1 mM): 0 millimeters
- Antibacterial Ec zone of inhibition (Escherichia coli [16]; 0.5 mM): 0 millimeters
- Antibacterial Ec zone of inhibition (Escherichia coli [16]; 1 mM): 0 millimeters
- Antibacterial Bc zone of inhibition (Bacillus cereus [17]; 0.1 mM): 0 millimeters
- Antibacterial Bc zone of inhibition (Bacillus cereus [17]; 0.5 mM): 10 millimeters
- Antibacterial Bc zone of inhibition (Bacillus cereus [17]; 1 mM): 15 millimeters
- Antibacterial Ms zone of inhibition (Mycobacterium smegmatis [18]; 0.1 mM): 0 millimeters
- Antibacterial Ms zone of inhibition (Mycobacterium smegmatis [18]; 0.5 mM): 0 millimeters
- Antibacterial Ms zone of inhibition (Mycobacterium smegmatis [18]; 1 mM): 0 millimeters
- Antibacterial Cx zone of inhibition (Corynebacterium xerosis [19]; 0.1 mM): 0 millimeters
- Antibacterial Cx zone of inhibition (Corynebacterium xerosis [19]; 0.5 mM): 0 millimeters
- Antibacterial Cx zone of inhibition (Corynebacterium xerosis [19]; 1 mM): 15 millimeters
- Antibacterial Cp zone of inhibition ([20]; 0.1 mM): 0 millimeters
- Antibacterial Cp zone of inhibition ([20]; 0.5 mM): 0 millimeters
- Antibacterial Cp zone of inhibition ([20]; 1 mM): 14 millimeters

Structure (SMILES): Clc1ccc(OCc2nnc(-c3cc4ccccc4[nH]3)o2)c(Cl)c1 [HGN-810]
- Antibacterial Bt zone of inhibition ([12]; 0.1 mM): 0 11.5 17 millimeters
- Antibacterial Bt zone of inhibition ([12]; 0.5 mM): 0 11.5 17 millimeters
- Antibacterial Bt zone of inhibition ([12]; 1 mM): 0 11.5 17 millimeters
- Antibacterial Pa zone of inhibition (Pseudomonas aeruginosa [13]; 0.1 mM): 0 millimeters
- Antibacterial Pa zone of inhibition (Pseudomonas aeruginosa [13]; 0.5 mM): 0 millimeters
- Antibacterial Pa zone of inhibition (Pseudomonas aeruginosa [13]; 1 mM): 0 millimeters
- Antibacterial Ml zone of inhibition (Micrococcus luteus [14]; 0.1 mM): 0 millimeters
- Antibacterial Ml zone of inhibition (Micrococcus luteus [14]; 0.5 mM): 0 millimeters
- Antibacterial Ml zone of inhibition (Micrococcus luteus [14]; 1 mM): 0 millimeters
- Antibacterial Kp zone of inhibition (Klebsiella pneumonia [15]; 0.1 mM): 0 millimeters
- Antibacterial Kp zone of inhibition (Klebsiella pneumonia [15]; 0.5 mM): 0 millimeters
- Antibacterial Kp zone of inhibition (Klebsiella pneumonia [15]; 1 mM): 0 millimeters
- Antibacterial Ec zone of inhibition (Escherichia coli [16]; 0.1 mM): 0 millimeters
- Antibacterial Ec zone of inhibition (Escherichia coli [16]; 0.5 mM): 0 millimeters
- Antibacterial Ec zone of inhibition (Escherichia coli [16]; 1 mM): 0 millimeters
- Antibacterial Bc zone of inhibition (Bacillus cereus [17]; 0.1 mM): 0 millimeters
- Antibacterial Bc zone of inhibition (Bacillus cereus [17]; 0.5 mM): 11 millimeters
- Antibacterial Bc zone of inhibition (Bacillus cereus [17]; 1 mM): 16.5 millimeters
- Antibacterial Ms zone of inhibition (Mycobacterium smegmatis [18]; 0.1 mM): 0 millimeters
- Antibacterial Ms zone of inhibition (Mycobacterium smegmatis [18]; 0.5 mM): 0 millimeters
- Antibacterial Ms zone of inhibition (Mycobacterium smegmatis [18]; 1 mM): 0 millimeters
- Antibacterial Cx zone of inhibition (Corynebacterium xerosis [19]; 0.1 mM): 0 millimeters
- Antibacterial Cx zone of inhibition (Corynebacterium xerosis [19]; 0.5 mM): 0 millimeters
- Antibacterial Cx zone of inhibition (Corynebacterium xerosis [19]; 1 mM): 0 millimeters
- Antibacterial Cp zone of inhibition ([20]; 0.1 mM): 0 millimeters
- Antibacterial Cp zone of inhibition ([20]; 0.5 mM): 0 millimeters
- Antibacterial Cp zone of inhibition ([20]; 1 mM): 0 millimeters

Structure (SMILES): COc1ccc(-c2nnc(-c3cc4ccccc4[nH]3)o2)cc1 [HGN-223, 2-(1H-indol-2-yl)-5-(4-methoxyphenyl)-1,3,4-oxadiazole]
- MtIspD melting point change [1]: 0.0 °C
- MtIspD melting temp [1]: 48.0 °C
- LeIspE melting point change [2]: −0.25 °C
- LeIspE melting temp [2]: 49.25 °C
- Bleaching (lettuce seeds; 0.5 mM): 0
- Germination (lettuce seeds; 0.5 mM): 1
- Root Dev. (lettuce seeds; 0.5 mM): 0
- Bleaching (lettuce seeds; 1.0 mM): 0
- Germination (lettuce seeds; 1.0 mM): 4
- Root Dev. (lettuce seeds; 1.0 mM): 0
- IC50 (AtIspD): 209 ± 29 µM
- IC50 (LeIspE): 126 ± 12 µM
- IC50 (AtIspF): > 1 mM
- BT score [3]: 0
- MS score (Mycobacterium smegmatis [4]): 0
- CX score (Corynebacterium xerosis [5]): 0
- CP score [6]: 0
- EC score (Escherichia coli [7]): 0
- KP score (Klebsiella pneumonia [8]): 0
- ML score (Micrococcus luteus [9]): 0
- BC score (Bacillus cereus [10]): 0
- PA score (Pseudomonas aeruginosa [11]): 0

Structure (SMILES): c1ccc(-c2ccc(-c3nnc(-c4cc5ccccc5[nH]4)o3)cc2)cc1 [HGN-288, 2-([1,1′-biphenyl]-4-yl)-5-(1H-indol-2-yl)-1,3,4-oxadiazole]
- MtIspD melting point change [1]: 1.0 °C
- MtIspD melting temp [1]: 49.0 °C
- LeIspE melting point change [2]: −1.50 °C
- LeIspE melting temp [2]: 48.00 °C
- Bleaching (lettuce seeds; 0.1 mM): 0
- Germination (lettuce seeds; 0.1 mM): 0
- Root Dev. (lettuce seeds; 0.1 mM): 0
- Bleaching (lettuce seeds; 0.2 mM): 0
- Germination (lettuce seeds; 0.2 mM): 0
- Root Dev. (lettuce seeds; 0.2 mM): 0
- IC50 (AtIspD): 255 ± 35 µM
- IC50 (LeIspE): > 1000 µM
- IC50 (AtIspF): > 1 mM
- BT score [3]: 0
- MS score (Mycobacterium smegmatis [4]): 0
- CX score (Corynebacterium xerosis [5]): 0
- CP score [6]: 0
- EC score (Escherichia coli [7]): 0
- KP score (Klebsiella pneumonia [8]): 0
- ML score (Micrococcus luteus [9]): 0
- BC score (Bacillus cereus [10]): 0
- PA score (Pseudomonas aeruginosa [11]): 0
